Test results from US8916711B2, “Imidazothiazole-chalcone derivatives as potential anticancer agents and process for the preparation thereof” (Council of Scientific and Industrial Research, priority 2009, dated 2014).
Read-outs that look alike come from different tables or passages of the source.

Tests used:
Format in all cases: cell-based
OVCAR-8 = experiment: NCI in vitro cytotoxicity (SRB, 48 h), Ovarian panel; conditions: Homo sapiens; OVCAR-8, Ovarian; 48 h exposure
HOP-62 = experiment: NCI in vitro cytotoxicity (SRB, 48 h), Non-small cell lung panel; conditions: Homo sapiens; HOP-62, Non-small cell lung; 48 h exposure
T-47D = experiment: NCI in vitro cytotoxicity (SRB, 48 h), Breast panel; conditions: Homo sapiens, T47D, 48 h exposure
NCI-H322M = experiment: NCI in vitro cytotoxicity (SRB, 48 h), Non-small cell lung panel; conditions: Homo sapiens, 48 h exposure
SF-539 = experiment: NCI in vitro cytotoxicity (SRB, 48 h), CNS panel; conditions: Homo sapiens; SF-539, CNS; 48 h exposure
[1] = tested on: sixty human tumour cell lines; experiment: NCI in vitro cytotoxicity, all panels; conditions: for CC50: read-out: Log10 LC50 mean graph midpoint (MG_MID) (converted)
K-562 = experiment: NCI in vitro cytotoxicity (SRB, 48 h), Leukemia panel; conditions: Homo sapiens, K562; K-562, Leukemia; 48 h exposure
Leukemia cell lines = experiment: NCI in vitro cytotoxicity, whole panel; conditions: Homo sapiens; for CC50: read-out: Log10 LC50 (converted)
[2] = tested on: Ovarian cancer cell lines; experiment: NCI in vitro cytotoxicity, whole panel; conditions: Homo sapiens; for CC50: read-out: Log10 LC50 (converted)
NCI-H23 = experiment: NCI in vitro cytotoxicity (SRB, 48 h), Non-small cell lung panel; conditions: Homo sapiens, 48 h exposure
[3] = tested on: Non-small-cell lung cancer cell lines; experiment: NCI in vitro cytotoxicity, whole panel; conditions: Homo sapiens; for CC50: read-out: Log10 LC50 (converted)
HOP-92 = experiment: NCI in vitro cytotoxicity (SRB, 48 h), Non-small cell lung panel; conditions: Homo sapiens
SK-OV-3 = experiment: NCI in vitro cytotoxicity (SRB, 48 h), Ovarian panel; conditions: Homo sapiens; SK-OV-3, Ovarian; 48 h exposure
CCRF-CEM = experiment: NCI in vitro cytotoxicity (SRB, 48 h), Leukemia panel; conditions: Homo sapiens, 48 h exposure
HCC-2998 = experiment: NCI in vitro cytotoxicity (SRB, 48 h), Colon panel; conditions: Homo sapiens; HCC-2998, Colon; 48 h exposure
Melanoma cell lines = experiment: NCI in vitro cytotoxicity, whole panel; conditions: Homo sapiens; for CC50: read-out: Log10 LC50 (converted)
Renal cancer cell lines = experiment: NCI in vitro cytotoxicity, whole panel; conditions: Homo sapiens; for CC50: read-out: Log10 LC50 (converted)
BT-549 = experiment: NCI in vitro cytotoxicity (SRB, 48 h), Breast panel; conditions: Homo sapiens; BT-549, Breast; 48 h exposure
MDA-MB-231/ATCC = experiment: as above; conditions: Homo sapiens; for GI50: Breast, 48 h exposure
Protocol: (§1) The imidazothiazole-chalcone hybrids 7a, 7e, 7f, 8f and 19e have been tested against sixty human tumour cell lines derived from nine cancer types (leukemia, non-small cell lung cancer, colon cancer, CNS cancer, melanoma, ovarian cancer, renal cancer, prostate cancer and breast cancer) as per NCI protocol. For each compound, dose response curves for individual cell lines have been measured at a minimum of five concentrations at 10 fold dilutions. A protocol of 48 h continuous drug exposure has been used, and a sulforhodamine B (SRB) protein assay was used to estimate cell viability or growth. The concentration for 50% cell growth inhibition (GI50), total cell growth inhibition (TGI, 0% growth) and 50% cell death (LC50, […]) compared with the control has been calculated (Table-1).

MCF7 = experiment: as above; conditions: Homo sapiens; for GI50: MCF7, Breast, 48 h exposure
Protocol: as §1

SR = experiment: NCI in vitro cytotoxicity (SRB, 48 h), Leukemia panel; conditions: Homo sapiens, 48 h exposure
Protocol: as §1

HL-60(TB) = experiment: as above; conditions: Homo sapiens, 48 h exposure
Protocol: as §1

SNB-75 = experiment: NCI in vitro cytotoxicity (SRB, 48 h), CNS panel; conditions: Homo sapiens; SNB-75, CNS; 48 h exposure
SNB-19 = experiment: NCI in vitro cytotoxicity (SRB, 48 h), CNS panel; conditions: Homo sapiens; SNB-19, CNS; 48 h exposure
NCI-H460 = experiment: NCI in vitro cytotoxicity (SRB, 48 h), Non-small cell lung panel; conditions: Homo sapiens, 48 h exposure
Breast cancer cell lines = experiment: NCI in vitro cytotoxicity, whole panel; conditions: Homo sapiens; for GI50 / CC50: Breast, average of six to eight cell lines; for GI50: read-out: Log10 GI50 (converted); for CC50: read-out: Log10 LC50 (converted); for IC50: exposure period of at least 48 hrs, read-out: IC50, range over breast cell lines
SK-MEL-2 = experiment: NCI in vitro cytotoxicity (SRB, 48 h), Melanoma panel; conditions: Homo sapiens; SK-MEL-2, Melanoma; 48 h exposure
A498 = experiment: NCI in vitro cytotoxicity (SRB, 48 h), Renal panel; conditions: Homo sapiens, 48 h exposure
MOLT-4 = experiment: NCI in vitro cytotoxicity (SRB, 48 h), Leukemia panel; conditions: Homo sapiens; MOLT-4, Leukemia; 48 h exposure
RPMI-8226 = experiment: as above; conditions: Homo sapiens; RPMI-8226, Leukemia; 48 h exposure
[4] = Homo sapiens, sixty cell lines, nine panels, read-out: GI50 against sixty cell lines in nine cell panels
[5] = human tumour cell lines, read-out: Log10 GI50 mean graph midpoint (MG_MID) (converted)
[6] = Leukemia, average of six to eight cell lines, read-out: Log10 GI50 (converted)
[7] = Leukemia, average of six to eight cell lines
[8] = exposure period of at least 48 hrs, read-out: GI50, range over leukemia cell lines
[9] = Ovarian, average of six to eight cell lines, read-out: Log10 GI50 (converted)
[10] = Ovarian, average of six to eight cell lines
[11] = exposure period of at least 48 hrs, read-out: GI50, range over ovarian cell lines
[12] = Non-small-cell lung, average of six to eight cell lines, read-out: Log10 GI50 (converted)
[13] = Non-small-cell lung, average of six to eight cell lines
[14] = exposure period of at least 48 hrs, read-out: GI50, range over lung cell lines
[15] = HOP-92, Non-small cell lung, 48 h exposure
[16] = Melanoma, average of six to eight cell lines, read-out: Log10 GI50 (converted)
[17] = Melanoma, average of six to eight cell lines
[18] = exposure period of at least 48 hrs, read-out: GI50, range over melanoma cell lines
[19] = Renal, average of six to eight cell lines, read-out: Log10 GI50 (converted)
[20] = Renal, average of six to eight cell lines
[21] = exposure period of at least 48 hrs, read-out: GI50, range over renal cell lines

Question: What does the source list for `COc1cc(C(=O)/C=C/c2c(-c3ccc(F)cc3)nc3sccn23)cc(OC)c1OC` [Compound 7e, (E)-3-(6-(4-fluorophenyl)imidazo[2,1-b]thiazol-5-yl)-1-(3,4,5-trimethoxyphenyl)prop-2-en-1-one]?
Answer: GI50 (OVCAR-8): 1.98 µM; GI50 (HOP-62): 2.25 µM; GI50 (T-47D): 3.25 µM; GI50 (NCI-H322M): 3.63 µM; GI50 (SF-539): 1.74 µM; GI50 [1, 4]: < 9 µM; Log10 TGI mean graph midpoint (MG_MID) ([1]; human tumour cell lines): −5.02; in vitro cytotoxicity, in words ([1]; human tumour cell lines): significant cytotoxicity; GI50 [1, 5]: 2.24 µM; CC50 ([1]; human tumour cell lines): 58.9 µM; GI50 (K-562): 1.55 µM; GI50 (Leukemia cell lines; [6]): 1.86 µM; CC50 (Leukemia cell lines; [7]): 70.8 µM; GI50 (Leukemia cell lines; [8]): 1.55 to 2.23 µM; GI50 [2, 9]: 2.19 µM; CC50 [2, 10]: 52.5 µM; GI50 [2, 11]: 1.04 to 3.78 µM; GI50 (NCI-H23): 2.49 µM; GI50 [3, 12]: 2.24 µM; CC50 [3, 13]: 56.2 µM; GI50 [3, 14]: 1.05 to 3.63 µM; GI50 (HOP-92; [15]): 1.05 µM; GI50 (HOP-92; HOP-92, non-small cell lung): 1.05 µM; IC50 (HOP-92; HOP-92, Table 4, read-out: Comparative efficacy): 1.05 µM; GI50 (SK-OV-3): 3.02 µM; GI50 (CCRF-CEM): 2.23 µM; GI50 (HCC-2998): 2.11 µM; GI50 (Melanoma cell lines; [16]): 2.63 µM; CC50 (Melanoma cell lines; [17]): 42.7 µM; GI50 (Melanoma cell lines; [18]): 1.82 to 8.27 µM; GI50 (Renal cancer cell lines; [19]): 1.55 µM; CC50 (Renal cancer cell lines; [20]): 87.1 µM; GI50 (Renal cancer cell lines; [21]): 0.04 to 5.81 µM; GI50 (BT-549): 3.76 µM; GI50 (MDA-MB-231/ATCC): 2.49 µM; IC50 (MDA-MB-231/ATCC; Table 4, read-out: Comparative efficacy): 2.49 µM; IC50 (MCF7; MCF7, MCF-7, Table 4, read-out: Comparative efficacy): 2.24 µM; GI50 (MCF7): 2.24 µM; GI50 (SR): 1.73 µM; GI50 (HL-60(TB)): 1.77 µM; GI50 (SNB-75): 2.46 µM; GI50 (SNB-19): 3.73 µM; GI50 (NCI-H460): 2.3 µM; GI50 (Breast cancer cell lines): 2.82 µM; CC50 (Breast cancer cell lines): ≥ 100 µM; IC50 (Breast cancer cell lines): 2.05 to 3.76 µM; GI50 (SK-MEL-2): 2.52 µM; GI50 (A498): 2.73 µM; GI50 (MOLT-4): 2.07 µM

Question: Which results are given for `COc1cc(C(=O)/C=C/c2c(-c3ccc(F)cc3)nc3sc(C)cn23)cc(OC)c1OC` [Compound 19e, (E)-3-(6-(4-fluorophenyl)-2-methylimidazo[2,1-b]thiazol-5-yl)-1-(3,4,5-trimethoxyphenyl)prop-2-en-1-one]?
Answer: GI50 (OVCAR-8): 4.94 µM; GI50 (HOP-62): 85.1 µM; GI50 (T-47D): 2.93 µM; GI50 (NCI-H322M): 8.65 µM; GI50 (SF-539): 6.23 µM; GI50 [1, 4]: < 9 µM; Log10 TGI mean graph midpoint (MG_MID) ([1]; human tumour cell lines): −4.14; in vitro cytotoxicity, in words ([1]; human tumour cell lines): significant cytotoxicity; GI50 [1, 5]: 4.79 µM; CC50 ([1]; human tumour cell lines): 95.5 µM; GI50 (K-562): 5.46 µM; GI50 (Leukemia cell lines; [6]): 2.69 µM; CC50 (Leukemia cell lines; [7]): ≥ 100 µM; GI50 (Leukemia cell lines; [8]): 0.8 to 7.19 µM; GI50 [2, 9]: 6.76 µM; CC50 [2, 10]: 100 µM; GI50 [2, 11]: ≥ 2.28 µM; GI50 (NCI-H23): 2.24 µM; GI50 [3, 12]: 4.47 µM; CC50 [3, 13]: ≥ 100 µM; GI50 [3, 14]: 0.15 to 85.1 µM; GI50 (HOP-92; [15]): 0.15 µM; GI50 (HOP-92; HOP-92, non-small cell lung): 0.15 µM; GI50 (SK-OV-3): 6.12 µM; GI50 (CCRF-CEM): 7.19 µM; GI50 (HCC-2998): 9.93 µM; GI50 (Melanoma cell lines; [16]): 3.02 µM; CC50 (Melanoma cell lines; [17]): ≥ 100 µM; GI50 (Melanoma cell lines; [18]): 0.51 to 7.07 µM; GI50 (Renal cancer cell lines; [19]): 6.31 µM; CC50 (Renal cancer cell lines; [20]): ≥ 100 µM; GI50 (Renal cancer cell lines; [21]): 1.78 to 28 µM; GI50 (BT-549): 3.75 µM; GI50 (RPMI-8226): 2.32 µM; GI50 (MDA-MB-231/ATCC): 5.38 µM; GI50 (MCF7): 1.81 µM; GI50 (SR): 0.8 µM; GI50 (HL-60(TB)): 2.8 µM; GI50 (SNB-75): 50.1 µM; GI50 (SNB-19): 87.8 µM; GI50 (NCI-H460): 3.87 µM; GI50 (Breast cancer cell lines): 3.63 µM; CC50 (Breast cancer cell lines): ≥ 100 µM; IC50 (Breast cancer cell lines): 1.81 to 8.29 µM; GI50 (SK-MEL-2): 5.75 µM; GI50 (MOLT-4): 1.62 µM
